Laboratory results: article PMC10375536, “Discovery of High-Affinity Amyloid Ligands Using a Ligand-Based Virtual Screening Pipeline” (Journal of the American Chemical Society, 2023)
Where two headings read alike, the source gives them in different places.

How the values were obtained:
Aβ(1-42) [1] = conditions: cited from earlier work
Aβ(1-42) [2] = conditions: direct binding, cited from earlier work
Aβ(1–42) fibrils = target: T1, Aβ(1–42) fibrils (Homo sapiens, UniProt P05067); assay: Thioflavin T (ThT) fluorescence competition assay; format: binding; conditions: for ThT displacement in competition screen: Aβ(1–42) fibrils (250 nM); for ThT displacement in competition screen / Kd: ThT (1.0 μM), 1× PBS pH 7.4, 25 °C; for Kd: Aβ(1–42) fibrils (500 nM)
T1 construct: Monomeric Aβ(1-42) (1 mg: Rockland Immunochemicals, Limerick, PA, Lot #31541); purchased Rockland Immunochemicals, Limerick, PA Lot #31541 (a lot number; no catalogue number given)
T1 sequence (P05067 672-713 limits assumed): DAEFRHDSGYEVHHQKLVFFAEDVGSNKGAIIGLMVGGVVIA

[3] = average of fits from at least three independent experiments, read-out: Kd/nM
[4] = read-out: –log(Kd/M) (converted)
[5] = against [125I]IMSB, ref 10.1021/jm010045q
[6] = against [3H]BF-227, ref 10.1177/1536012118796297

For `CN(C)c1ccc(/C=C/c2ccc3ccc(OCCF)cc3n2)cc1` [SQ3], the Ki (Aβ(1-42) [1]; against [125I]ISQ, ref 10.1021/acsmedchemlett.2c00279) is listed as 230 nM.
In the case of `Cc1cc(-c2ccc(/N=N/c3ccc4c(S(=O)(=O)O)cc(S(=O)(=O)O)c(N)c4c3O)c(C)c2)ccc1/N=N/c1ccc2c(S(=O)(=O)O)cc(S(=O)(=O)O)c(N)c2c1O` [Honson2b (Evan's blue), Evan's blue], the Ki (Aβ(1-42) [1]; against ThS, ref 10.1016/j.nbd.2007.07.018) is given as 180 nM.
For `CCN(CC)c1ccc(/C=C/c2nc3ccccc3o2)cc1` [BF-125], the Ki (Aβ(1-42) [1]; against [125I]BF-180, ref 10.1523/JNEUROSCI.4456-03.2004) is given as 4.9 nM.
In the case of `COc1ccc(/C=C/c2ccc(/C=C/c3ccc(OC)c(C(=O)O)c3)c(I)c2)cc1C(=O)O` [[125I]IMSB], the Kd (Aβ(1-42) [2]; ref 10.1021/jm010045q) is listed as 0.73 nM.
In the case of `CN(CCCCc1ccccc1)C(=O)Nc1ccc2c(c1)OCC(=O)N2C` [E163], the “ThT displacement in competition screen” value (Aβ(1–42) fibrils) is reported as “displaced the greatest quantity of ThT”, the Kd (Aβ(1–42) fibrils; [3]) is reported as 200 ± 100 nM and the Kd (Aβ(1–42) fibrils; [4]) is reported as 158 nM.
For `CN(C)c1ccc(-c2nc3ccc(I)cc3s2)cc1` [[125I]TZDM], the Kd (Aβ(1-42) [2]; ref 10.1016/j.bmc.2011.03.029) is listed as 0.45 nM and the Kd (Aβ(1-42) [2]; ref 10.5012/bkcs.2008.29.9.1765) is listed as 0.13 nM.
For `CNc1ccc(-c2ccc3ccccc3n2)cc1` [BF-158], the Ki (Aβ(1-42) [1]; against [125I]BF-180, ref 10.1523/JNEUROSCI.1738-05.2005) is given as over 5000 nM.
For `CN(C)c1ccc(-c2nc3ccc(I)cc3s2)cc1` [TZDM], the Kd (Aβ(1-42) [2]; ref 10.1021/jm010045q) is listed as 0.14 nM and the Ki (Aβ(1-42) [1]; [5]) is listed as over 5000 nM.
With `CCOc1ccc(CCN(C)C(=O)Nc2ccc3c(c2)CCC(=O)N3C)cc1` [E363] the “ThT displacement in competition screen” value (Aβ(1–42) fibrils) was “displaced the greatest quantity of ThT”, the Kd (Aβ(1–42) fibrils; [3]) was 20 ± 10 nM and the Kd (Aβ(1–42) fibrils; [4]) was 25.1 nM.
In the case of `C#CCN(C)CCCOc1ccc(Cl)cc1Cl` [Clorgyline], the Ki (Aβ(1-42) [1]; [6]) is given as over 9000 nM.
For `Nc1ccc(-c2ccc3cc(OCCF)ccc3n2)cc1` [THK-523], the Kd (Aβ(1-42) [2]; ref 10.1007/s00259-012-2261-2) is listed as 30.3 nM and the Kd (Aβ(1-42) [2]; ref 10.1093/brain/awr038) is listed as 20.7 nM.
In the case of `CNc1ccc(-c2nc3ccc(O)cc3s2)cc1F` [Flutemetamol], the Ki (Aβ(1-42) [1]; [6]) is given as 65 nM.
For `CNc1ccc(/C=C/c2ccc(OCCOCCOCCF)nc2)cc1` [AV-45, Florbetapir], the Ki (Aβ(1-42) [1]; [6]) is listed as 12 nM.
For `CNc1ccc(/C=C/c2nc3cc(I)ccc3o2)cc1` [BF-180], the Kd (Aβ(1-42) [2]; ref 10.1523/JNEUROSCI.4456-03.2004) is given as 10.6 nM.
In the case of `CN(C)c1ccc(/N=N/c2nc3ccc(OCCOCCOCCF)cc3s2)cc1` [FPPDB], the Ki (Aβ(1-42) [1]; against ThS, ref 10.1021/ml200230e) is given as 20 nM.
For `Cc1c(OCC(F)(F)F)ccnc1C[S+]([O-])c1nc2ccccc2[nH]1` (stereo not drawn) [LNS], the Kd (Aβ(1-42) [2]; ref 10.1021/cn500103u) is listed as 11 nM.
For `O=C(O)c1cc(/N=N/c2ccc(-c3ccc(/N=N/c4ccc(O)c(C(=O)O)c4)cc3)cc2)ccc1O` [CG], the Ki (Aβ(1-42) [1]; against [125I]IMSB, ref 10.1016/j.bmcl.2011.08.003) is given as 0.43 nM and the Ki (Aβ(1-42) [1]; [5]) is given as 0.4 nM.
For `CNc1ccc(/C=C/c2nc3cc(F)ccc3o2)cc1` [BF-145], the Ki (Aβ(1-42) [1]; against [125I]BF-180, ref 10.1385/JMN:24:2:247) is listed as 4.5 nM.
For `Cc1cc(/C=C/c2ccc(N(C)C)cc2)n2c1C=C1C=CC=[N+]1[B-]2(F)F` [BAP-1], the Kd (Aβ(1-42) [2]; ref 10.1021/cn3000058) is given as 44.1 nM.
In the case of `CCOc1ccccc1OCC(=O)Nc1ccc(-c2ncc3n2CCCC3)cc1` [E570], the “ThT displacement in competition screen” value (Aβ(1–42) fibrils) is reported as “displaced the greatest quantity of ThT”, the Kd (Aβ(1–42) fibrils; [3]) is reported as 20 ± 10 nM and the Kd (Aβ(1–42) fibrils; [4]) is reported as 25.1 nM. For the same compound, the “bound ThT displaced” value (Aβ(1–42) fibrils; titration into Aβ(1–42) fibrils (500 nM) and ThT (1.0 μM)) was “about half”.
For `O=C(O)c1cc(C=Cc2ccc(C=Cc3ccc(O)c(C(=O)O)c3)c(I)c2)ccc1O` [[125]ISB], the Kd (Aβ(1-42) [2]; ref 10.1021/jm010045q) is given as 0.15 nM.
For `CC(C)CC1=[O+][B-](F)(F)OC(/C=C/c2ccc3cc(N(C)C)ccc3c2)=C1` [NAP-OB], the Kd (Aβ(1-42) [2]; ref 10.1016/j.bioactmat.2021.10.047) is listed as 0.62 nM.
